Assay results from ChEMBL document CHEMBL1156447, “Cyanidin-3-rutinoside, a natural polyphenol antioxidant, selectively kills leukemic cells by induction of oxidative stress” (J Biol Chem, 2007).
Activity calls are given as the source filed them. The calls are words filed in the database; no cut-off is given here.

Legend:
HL-60 [1] = assay: Induction of apoptosis in human HL60 cells after 18 hrs by Hoechst 33258 staining; assay type: functional, cell-based
HL-60 [2] = assay: Induction of apoptosis in human HL60 cells at 60 uM by Hoechst 33258 staining; assay type: functional, cell-based; conditions: TDE = time-dependent effect
HL-60 [3] = assay: Induction of apoptosis in human HL60 cells assessed as caspase 3 activation; assay type: functional, cell-based
HL-60 [4] = assay: Induction of apoptosis in human HL60 cells assessed as caspase 9 activation; assay type: functional, cell-based
HL-60 [5] = assay: Suppression of induction of apoptosis in human HL60 cells at 60 uM after 18 hrs in presence of Z-VAD; assay type: functional, cell-based
HL-60 [6] = assay: Suppression of induction of apoptosis in human HL60 cells at 60 uM after 18 hrs in presence of DEVD-CHO; assay type: functional, cell-based
HL-60 [7] = assay: Induction of apoptosis in human HL60 cells assessed as cytochrome c release at 80 uM by immunoblot analysis; assay type: functional, cell-based
HL-60 [8] = assay: Induction of apoptosis in human HL60 cells assessed as Smac release at 80 uM by immunoblot analysis; assay type: functional, cell-based
MOLT-4 = assay: Induction of apoptosis in human MOLT4 cells after 18 hrs by Hoechst staining; assay type: functional, cell-based
Daudi = assay: Induction of apoptosis in human Daudi cells after 18 hrs by Hoechst staining; assay type: functional, cell-based
CCRF-CEM [9] = assay: Induction of apoptosis in human CCRF-CEM cells after 18 hrs by Hoechst staining; assay type: functional, cell-based
[10] = Antioxidant activity in Ti(IV)-hydrogen peroxide complex system assessed as inhibition of hydrogen peroxide production; assay type: functional
[11] = Antioxidant activity assessed as inhibition of superoxide production; assay type: functional
[12] = Antioxidant activity assessed as inhibition of peroxyl radical production; assay type: functional
PBMC = assay: Antioxidant activity in human PBMC assessed as reduction in intracellular peroxide levels by flow cytometry; assay type: functional, cell-based
HL-60 [13] = assay: Increase in hydrogen peroxide accumulation in human HL60 cells at 80 uM by flow cytometry; assay type: functional, cell-based
HL-60 [14] = assay: Increase in intracellular hydrogen peroxide level in human HL60 cells after 1 hr by phenol red method; assay type: functional, cell-based
HL-60 [15] = assay: Suppression of induction of apoptosis in human HL60 cells at 80 uM after 18 hrs by Hoechst staining in presence of hydrogen peroxide; assay type: functional, cell-based
HL-60 [16] = assay: Suppression of induction of apoptosis in human HL60 cells at 80 uM after 18 hrs by Hoechst staining in presence of N-acetyl-cysteine; assay type: functional, cell-based
HL-60 [17] = assay: Suppression of induction of apoptosis in human HL60 cells at 80 uM after 18 hrs by Hoechst staining in presence of catalase; assay type: functional, cell-based
[18] = biological target: T1, MAP kinase p38 (Homo sapiens) (UniProt O15264+Q15759+Q16539+P53778); assay: Increase in p38 MAPK phosphorylation in human HL60 cells at 80 uM after 8 hrs by immunoblot analysis; assay type: cell-based; conditions: HL-60
[19] = biological target: T2, c-Jun N-terminal kinase, JNK (Homo sapiens) (UniProt P45983+P53779+P45984); assay: Increase in JNK phosphorylation in human HL60 cells at 80 uM after 8 hrs by immunoblot analysis; assay type: cell-based; conditions: HL-60
HL-60 [20] = assay: Suppression of induction of apoptosis in human HL60 cells assessed as inhibition of mitochondrial release of cytochrome c at 80 uM after 18 hrs […] in presence of SB-203580; assay type: functional, cell-based
HL-60 [21] = assay: Suppression of induction of apoptosis in human HL60 cells assessed as inhibition of mitochondrial release of cytochrome c at 80 uM after 18 hrs […] in presence of SP600125; assay type: functional, cell-based
HL-60 [22] = assay: Suppression of induction of apoptosis in human HL60 cells assessed as inhibition of mitochondrial release of Smac at 80 uM after 18 hrs […] in presence of SB-203580; assay type: functional, cell-based
HL-60 [23] = assay: Suppression of induction of apoptosis in human HL60 cells assessed as inhibition of mitochondrial release of Smac at 80 uM after 18 hrs […] in presence of SP600125; assay type: functional, cell-based
HL-60 [24] = assay: Suppression of induction of apoptosis in human HL60 cells at 80 uM after 18 hrs by Hoechst staining in presence of SB-203580; assay type: functional, cell-based
HL-60 [25] = assay: Suppression of induction of apoptosis in human HL60 cells at 80 uM after 18 hrs by Hoechst staining in presence of SP600125; assay type: functional, cell-based
[26] = biological target: T3, Bcl-2 homologous antagonist/killer (Homo sapiens) (UniProt Q16611); assay: Activation of Bak in human HL60 cells assessed as oligomerization and conformational change at 80 uM after 8 hrs by immunostaining; assay type: functional, cell-based; conditions: HL-60
T3 sequence (whole entry): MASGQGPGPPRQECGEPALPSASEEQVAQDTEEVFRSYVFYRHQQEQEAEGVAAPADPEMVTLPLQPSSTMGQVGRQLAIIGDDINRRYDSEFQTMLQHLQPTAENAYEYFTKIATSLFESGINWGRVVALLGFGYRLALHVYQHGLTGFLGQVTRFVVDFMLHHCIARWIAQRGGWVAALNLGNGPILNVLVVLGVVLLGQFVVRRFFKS

[27] = biological target: Bcl-2-like protein 11 (Homo sapiens) (UniProt O43521); assay: Increase in Bim EL phosphorylation in human HL60 cells at 80 uM after 8 hrs by immunoblot analysis; assay type: cell-based; conditions: HL-60
Chain of Bcl-2-like protein 11 (Homo sapiens) (O43521 whole entry, looked up): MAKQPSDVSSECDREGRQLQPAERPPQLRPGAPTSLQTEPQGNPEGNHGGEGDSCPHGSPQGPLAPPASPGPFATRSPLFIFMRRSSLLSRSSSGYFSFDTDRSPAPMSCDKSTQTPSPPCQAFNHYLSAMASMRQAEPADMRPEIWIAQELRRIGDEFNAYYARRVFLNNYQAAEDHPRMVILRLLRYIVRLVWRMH

CCRF-CEM [28] = assay: Suppression of induction of apoptosis in human CCRF-CEM cells at 80 uM after 24 hrs by Hoechst staining in presence of SB-203580; assay type: functional, cell-based
CCRF-CEM [29] = assay: Suppression of induction of apoptosis in human CCRF-CEM cells at 80 uM after 24 hrs by Hoechst staining in presence of N-acetyl-cysteine; assay type: functional, cell-based
CCRF-CEM [30] = assay: Suppression of induction of apoptosis in human CCRF-CEM cells at 80 uM after 24 hrs by Hoechst staining in presence of catalase; assay type: functional, cell-based
HL-60 [31] = assay: Induction of apoptosis in human HL60 cells overexpressing human Bcl XL after 18 hrs by Hoechst staining; assay type: functional, cell-based
HL-60 [32] = assay: Induction of apoptosis in human HL60 cells overexpressing human Bcl2 after 18 hrs by Hoechst staining; assay type: functional, cell-based
[33] = biological target: T1, MAP kinase p38 (Homo sapiens); assay: Increase in p38 MAPK phosphorylation in catalase pretreated human HL60 cells at 80 uM after 8 hrs by immunoblot analysis; assay type: cell-based; conditions: HL-60
[34] = biological target: T2, c-Jun N-terminal kinase, JNK (Homo sapiens); assay: Increase in JNK phosphorylation in N-acetyl-cysteine pretreated human HL60 cells at 80 uM after 8 hrs by immunoblot analysis; assay type: cell-based; conditions: HL-60
[35] = biological target: T2, c-Jun N-terminal kinase, JNK (Homo sapiens); assay: Increase in JNK catalase pretreated human HL60 cells at 80 uM after 8 hrs by immunoblot analysis; assay type: cell-based; conditions: HL-60
CCRF-CEM [36] = assay: Induction of apoptosis in human CCRF-CEM cells expressing shRNA against Bim at 80 uM after 24 hrs by Hoechst staining; assay type: functional, cell-based
[37] = biological target: Apoptosis regulator BAX (Homo sapiens) (UniProt Q07812); assay: Activation of Bax in human HL60 cells assessed as mitochondrial translocation at 80 uM after 8 hrs by immunostaining; conditions: HL-60
Chain of Apoptosis regulator BAX (Homo sapiens) (Q07812 whole entry): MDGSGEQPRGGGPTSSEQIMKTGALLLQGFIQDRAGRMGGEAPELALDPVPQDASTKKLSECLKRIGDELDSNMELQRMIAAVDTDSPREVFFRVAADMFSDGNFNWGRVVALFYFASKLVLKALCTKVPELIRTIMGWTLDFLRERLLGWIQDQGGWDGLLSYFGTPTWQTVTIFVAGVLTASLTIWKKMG

[38] = biological target: T1, MAP kinase p38 (Homo sapiens); assay: Increase in p38 MAPK phosphorylation in N-acetyl-cysteine pretreated human HL60 cells at 80 uM after 2 hrs by immunoblot analysis; conditions: HL-60

Activity [18]: Active
Activity [19]: Active
Activity [27]: Active
Activity [33]: inactive
Activity [34]: inactive
Activity [35]: inactive
Activity [37]: Active
Activity [38]: inactive
Compound: C[C@@H]1O[C@@H](OC[C@H]2O[C@@H](Oc3cc4c(O)cc(O)cc4[o+]c3-c3ccc(O)c(O)c3)[C@H](O)[C@@H](O)[C@@H]2O)[C@H](O)[C@H](O)[C@H]1O
Activity (HL-60 [1]): Dose-dependent effect
Activity (HL-60 [2]): tde
Activity (HL-60 [3]): Dose-dependent effect
Activity (HL-60 [4]): Dose-dependent effect
Activity (HL-60 [5]): Active
Activity (HL-60 [6]): Active
Activity (HL-60 [7]): Active
Activity (HL-60 [8]): Active
Activity (MOLT-4): Active
Activity (Daudi): Active
Activity (CCRF-CEM [9]): Active
Activity [10]: Dose-dependent effect
Activity [11]: Active
Activity [12]: Active
Activity (PBMC): Active
Activity (HL-60 [13]): Active
Activity (HL-60 [14]): Active
Activity (HL-60 [15]): Active
Activity (HL-60 [16]): Active
Activity (HL-60 [17]): Active
Activity (HL-60 [20]): Active
Activity (HL-60 [21]): Active
Activity (HL-60 [22]): Active
Activity (HL-60 [23]): Active
Activity (HL-60 [24]): Active
Activity (HL-60 [25]): Active
Activity [26]: Active
Activity (CCRF-CEM [28]): Active
Activity (CCRF-CEM [29]): Active
Activity (CCRF-CEM [30]): Active
Activity (HL-60 [31]): inactive
Activity (HL-60 [32]): inactive
Activity (CCRF-CEM [36]): inactive
